Source: US20070276034A1, “Compounds, compositions and methods for the treatment of synucleinopathies” (priority 2002, published 2007)
Read-outs that look alike come from different tables or passages of the source.

How the values were obtained:
Type in all cases: biochemical
Aβ 1-42 fibrils = biological target: T1, Aβ 1-42 fibrils (Homo sapiens, UniProt P05067); assay: Thioflavin T fluorometry - disruption of pre-formed Aβ 1-42 Alzheimer's fibrils; settings: 25 μM pre-fibrillized Aβ 1-42, 37° C., 3 days, read-out: % Inhibition Aβ (result ± S.D.)
T1 construct: purchased Bachem Inc
T1 sequence (P05067 672-713): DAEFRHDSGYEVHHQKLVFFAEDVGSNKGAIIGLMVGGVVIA
Source text: In one study, Thioflavin T fluorometry was used to determine the effects of the compounds, and of EDTA (as a negative control). In this assay Thioflavin T binds specifically to fibrillar amyloid, and this binding produces a fluorescence enhancement at 485 nm that is directly proportional to the amount of amyloid fibrils formed. The higher the fluorescence, the greater the amount of amyloid fibrils formed (Naki et al., Lab. Invest. 65:104-110, 1991; Levine III, Protein Sci. 2:404-410, 1993; Amyloid: Int. J. Exp. Clin. Invest. 2:1-6, 1995).
(§1) In this study, 25 μM of pre-fibrillized Aβ 1-42 (Bachem Inc) was incubated at 37° C. for 3 days either alone, or in the presence of one of the compounds or EDTA (at Aβ:test compound weight ratios of 1:1, 1:0.1, 1:0.01 or 1:0.001). Following 3-days of co-incubation, 50 μl of each incubation mixture was transferred into a 96-well microtiter plate containing 150 μl of distilled water and 50 μl of a Thioflavin T solution (i.e. 500 mM Thioflavin T in 250 mM phosphate buffer, pH 6.8). The fluorescence was read at 485 nm (444 nm excitation wavelength) using an ELISA plate fluorometer after subtraction with buffer alone or compound alone, as blank.

monomeric Aβ 1-42 = biological target: T2, monomeric Aβ 1-42 (Homo sapiens, UniProt P05067); assay: SDS-PAGE/Western blot of Aβ 1-42 after incubation with compounds; settings: 25 μM pre-fibrillized Aβ 1-42, 37° C., 3 days, 0.2 μm filtrate, antibody 6E10
T2 construct: purchased Bachem Inc
T2 sequence (P05067 672-713): as above
Description: In this latter study, triplicate samples of pre-fibrillized Aβ 1-42 (25 μM) was incubated at 37° C. for 3 days, alone or in the presence of the compounds or EDTA. Five micrograms of each sample was then filtered through a 0.2 μm filter. Protein recovered from the filtrate was then loaded, and ran on a 10-20% Tris-Tricine SDS-PAGE, blotted to nitrocellulose and detected using an Aβ-antibody (clone 6E10; Senetek).

IAPP fibrils [1] = biological target: T3, IAPP fibrils (Homo sapiens, UniProt P10997); assay: Thioflavin T fluorometry - disruption of type 2 diabetes IAPP fibrils; settings: 25 μM pre-fibrillized IAPP, 37° C., 3 days, read-out: % Inhibition IAPP (result ± S.D.)
T3 construct: purchased Bachem Inc
T3 sequence (P10997 34-70 limits assumed): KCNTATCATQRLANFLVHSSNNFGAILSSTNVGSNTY
Description: In this assay Thioflavin T binds specifically to fibrillar amyloid, and this binding produces a fluorescence enhancement at 485 nm that is directly proportional to the amount of IAPP fibrils present. The higher the fluorescence, the greater the amount of IAPP fibrils present (Naki et al, Lab. Invest. 65:104-110, 1991; Levine III, Protein Sci. 2:404-410, 1993; Amyloid: Int. J. Exp. Clin. Invest. 2:1-6, 1995).
as §1, with “IAPP” for “Aβ 1-42”, “IAPP:test” for “Aβ:test”

IAPP fibrils [2] = biological target: T3, IAPP fibrils; assay: Congo red binding assay with IAPP fibrils; settings: 3-day incubation
Description: In the Congo red binding assay the ability of a given test compound to alter amyloid (in this case, IAPP) binding to Congo red is quantified. In this assay, IAPP and test compounds were incubated for 3 days and then vacuum filtered through a 0.2 μm filter. The amount of IAPP retained in the filter was then quantitated following staining of the filter with Congo red. After appropriate washing of the filter, any lowering of the Congo red color on the filter in the presence of the test compound (compared to the Congo red staining of the amyloid protein in the absence of the test compound) was indicative of the test compound's ability to diminish/alter the amount of aggregated and congophilic IAPP.
In the study, the ability of IAPP fibrils to bind Congo red in the absence or presence of increasing amounts of the compounds or EDTA (at IAPP:test compound weight ratios of 1:1, 1:0.1, 1:0.01 or 1:0.001) was determined.

[3] = Aβ:test compound wt/wt ratio 1:0.001
[4] = Aβ:test compound wt/wt ratio 1:0.01
[5] = Aβ:test compound wt/wt ratio 1:0.1
[6] = Aβ:test compound wt/wt ratio 1:1
[7] = IAPP:test compound wt/wt ratio 1:0.001
[8] = IAPP:test compound wt/wt ratio 1:0.01
[9] = IAPP:test compound wt/wt ratio 1:0.1
[10] = IAPP:test compound wt/wt ratio 1:1

SMILES | inhibition (Aβ 1-42 fibrils; [3]) | inhibition (Aβ 1-42 fibrils; [4]) | inhibition (Aβ 1-42 fibrils; [5]) | inhibition (Aβ 1-42 fibrils; [6]) | detection of Aβ 1-42 monomers (~4 kilodalton band) on Western blot (monomeric Aβ 1-42) | inhibition (IAPP fibrils [1]; [7]) | inhibition (IAPP fibrils [1]; [8]) | inhibition (IAPP fibrils [1]; [9]) | inhibition (IAPP fibrils [1]; [10]) | % Inhibition IAPP (result ± S.D.), Congo red binding (IAPP fibrils [2]; [7]) | % Inhibition IAPP (result ± S.D.), Congo red binding (IAPP fibrils [2]; [8]) | % Inhibition IAPP (result ± S.D.), Congo red binding (IAPP fibrils [2]; [9]) | % Inhibition IAPP (result ± S.D.), Congo red binding (IAPP fibrils [2]; [10])
O=C(CCc1ccc(O)c(O)c1)NCc1ccc(O)c(O)c1 [Compound 58, 3-(3,4-dihydroxyphenyl)propionic acid 3,4-dihydroxybenzylamide] | 20.5 ± 6.27% | 33.2 ± 5.16% | 76 ± 2.57% | 94.8 ± 1.67% | not detected | 8.9 ± 6.87% | 48.8 ± 2.05% | 87.6 ± 1.16% | 98.1 ± 1.04% | 0.0 ± 1.93% | 4.6 ± 2.35% | 0.7 ± 6.21% | 24.5 ± 0.57%
Oc1ccc(CNCc2ccc(O)c(O)c2)cc1O [Compound 73, bis(3,4-dihydroxybenzyl)amine] | 0% | 28.7 ± 10.3% | 70.9 ± 3.04% | 99.4 ± 0.42% |  |  |  |  |  |  |  |  | 
O=C(CCc1ccc(O)c(O)c1)Nc1ccc(O)c(O)c1 [Compound 57, 3-(3,4-dihydroxyphenyl)propionic acid 3,4-dihydroxyanilide] | 17.7 ± 7.43% | 19 ± 6.33% | 60.2 ± 3.12% | 88.4 ± 2.73% |  | 1.9 ± 5.24% | 37.3 ± 0.78% | 73.2 ± 1.19% | 94.1 ± 0.46% | 4.5 ± 0.64% | 8.5 ± 3.19% | 8.9 ± 3.90% | 15.7 ± 3.77%
Oc1ccc(CN(Cc2ccc(O)c(O)c2)Cc2ccc(O)c(O)c2)cc1O [Compound 75, tris(3,4-dihydroxybenzyl)amine] | 17 ± 4.2% | 31.6 ± 4.74% | 84.4 ± 0.94% | 99 ± 0.63% | not detected | 6 ± 6.46% | 43.9 ± 5.34% | 90 ± 0.27% | 100 ± 0.35% | 2.9 ± 0.69% | 11.3 ± 2.24% | 7.4 ± 0.70% | 49.0 ± 1.17%
